Tests used:
[1] = test system: RKO (RKOp27) human colon adenocarcinoma cells; assay: Alamar Blue cell viability assay, anti-proliferative/cytotoxic activity on proliferating RKO subclones; assay type: cell-based; details: RKOp27, 72 h, RKO p27 uninduced (proliferating) cells, value = class bound given in Table A, read-out: −logIC50 RKO p27 uninduced (proliferating) (converted)
Method in brief: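 Alamar Blue fluorescence (ex 544, em 590 nm) after 72 h compound exposure at 37 °C, 5% CO2, normalised to untreated controls set at 100%. Cells were seeded at 5000 per well and dosed 24 h later with serial semi-logarithmic dilutions in 10% FCS DMEM, four replicates each. −log IC50 [mol/l] was derived from concentration-effect curves.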

[2] = test system: subclones of RKO colon adenocarcinoma cells (RKOp27 or RKOp21) arrested by Ponasterone A; assay: Alamar Blue cell viability assay, cell cycle specific mode of action: cells arrested by ectopic p27Kip1 induced by Ponasterone A versus proliferating cells; assay type: cell-based; details: Homo sapiens, RKO p27 induced (arrested) cells, 10 μM Ponasterone A, 72 hours, value = class bound given in Table A, read-out: −logIC50 RKO p27 induced (arrested) (converted)
Method in brief: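 Viability of proliferating versus Ponasterone A (10 μM)-arrested RKOp27/RKOp21 cells after 72 h compound exposure at 37° C, in quadruplicate. Read-out is Alamar Blue fluorescence (544/590 nm) normalised to untreated cells = 100%; values as −log IC50.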

IC50 [2]: ≥ 10 µM
SMILES: CC(CC(=O)Nc1sc2c(c1C#N)CCC(COC(=O)N1CCOCC1)C2)c1ccccc1 (centres unmarked) [Example 378, Morpholine-4-carboxylic acid 3-cyano-2-[3-phenyl-butanoyl-amino]-4,5,6,7-tetrahydro-benzo[b] thiophen-6-ylmethyl ester]
IC50 [1]: ≤ 0.501 µM

Reference: patent publication US20110044938A1 (NYCOMED GMBH, priority 2006, published 2011)
